Results as given in patent US20080051400A1, “Methods for treating or preventing anemia or thrombocytopenia using a triheterocyclic compound” (Gemin X Biotechnologies Inc., priority 2006, published 2008).

Key:
[1] = tested on: patients having myelodysplastic syndromes (MDS); test: Multi-center, open label, dose escalation study in patients having myelodysplastic syndromes (MDS); type: in vivo, human
Experimental: In a multi-center, open label, dose escalation study, a group of eight patients having myelodysplastic syndromes (MDS) received intravenous doses of 7-40 mg/m^2 of the mesylate salt of Compound 1 administered as a 24-hour infusion every two weeks. These infusions were administered over a period of several weeks to several months, the first cycle of infusion was administered in a clinical unit but the subsequent four cycles were administered in the ambulatory setting using portable infusion pumps.

[2] = tested on: patients having chronic lymphocytic leukemia (CLL); test: Multi-center, double-blind, dose-ranging study in patients having chronic lymphocytic leukemia (CLL); type: in vivo, human
Experimental: In a multi-center, double-blind, dose-ranging study, two groups of patients having chronic lymphocytic leukemia (CLL) received intravenous doses of either 3.5-14 mg/m^2 of the mesylate salt of Compound 1 administered as a 1-hour infusion, or a 20-40 mg/m2 dose via a 3-hour infusion. These infusions were administered over a period of several weeks to several months.

## COC1=CC(c2cc3ccccc3[nH]2)=N/C1=C\c1[nH]c(C)cc1C [Compound 1]
[1]; MDS patients, mesylate salt i.v. 7-40 mg/m^2 as 24-hour infusion every two weeks, FIG. 2A
  patients who showed hematological improvement in hemoglobin levels: Three out of eight patients
[1]; MDS patients, mesylate salt i.v. 7-40 mg/m^2 as 24-hour infusion every two weeks, FIG. 2B, patient 3 was not thrombocytopenic at start
  patients who showed platelet count elevation: these three patients showed platelet count elevation
[1]; among the three MDS patients with hemoglobin improvement, FIG. 2A
  patients becoming transfusion independent (hemoglobin responders): two of the patients
[1]; among the three MDS patients with platelet count elevation, FIG. 2B
  patients becoming transfusion independent (platelet responders): one of the patients
[2]; CLL patients with initial hemoglobin counts of less than 11 g/dL, mesylate salt i.v. 3.5-40 mg/m^2
  anemic patients who showed significant hemoglobin elevation: three out of eleven anemic patients
[2]; CLL patients with initial platelet counts less than 150×10^9/L, mesylate salt i.v. 3.5-14 mg/m^2 as 1-hour infusion or 20-40 mg/m2 as 3-hour infusion, over several weeks to several months
  patients having thrombocytopenia who showed significant increases in platelet count: Four patients out of fourteen patients
[2]; among the three anemic CLL patients with hemoglobin elevation, FIG. 1
  patients becoming transfusion independent (hemoglobin responders): two of the patients
[2]; four responding thrombocytopenic CLL patients, mesylate salt i.v. 3.5-40 mg/m^2
  increase in platelet count in responding patients: over 50%
